Paper PMC5773577, “Novel Miniature Membrane Active Lipopeptidomimetics against Planktonic and Biofilm Embedded Methicillin-Resistant Staphylococcus aureus” (Scientific Reports, 2018)
≈ marks a conversion by molar mass, not a printed value. Residues, ends and D or L forms follow the SMILES beside them. No end group written: not given here.

Tests used:
S. aureus (ATCC 25923) = experiment: microbe, parasite or virus in culture; format: cell-based, Staphylococcus aureus; settings: MHB, 2–5 × 10^5 CFU/mL, 16–18 h, 37 °C, OD600
Method: (§1) The antibacterial activity was evaluated as MIC using slight modifications to a serial broth micro dilution method as reported previously[66],[67]. Briefly, to each treatment well of the 96-well plate (Corning Incorporated, USA) 10 μL of peptidomimetic/antibiotic was added and subsequently diluted serial 2-fold in 0.2% BSA (in 0.01% acetic acid). Then to each well of the first 11 columns 100 μL of mid-log phase bacterial suspension in MHB medium was added to get 2–5 × 10^5 CFU/mL. Cultures without test peptidomimetics/antibiotics were used as growth control. Uninoculated MHB medium was used as negative control. The microtitre plates were incubated overnight with agitation (180 rpm) at 37 °C. After 16–18 h incubation, absorbance was read at 600 nm using an ELISA plate reader (Molecular Devices, Sunnyvale, CA, USA). The experiments were carried out in duplicate on at least three different days.

S. aureus (ATCC 29213) = experiment: microbe, parasite or virus in culture; format: cell-based, Staphylococcus aureus; settings: MHB, 2–5 × 10^5 CFU/mL, 16–18 h, 37 °C, OD600, duplicate, at least three days
Method: as §1

S. aureus (ISP479C) = experiment: microbe, parasite or virus in culture; format: cell-based, Staphylococcus aureus; settings: MHB, 2–5 × 10^5 CFU/mL, 16–18 h, 37 °C, OD600
Method: as §1

MRSA (ATCC 33591) = experiment: microbe, parasite or virus in culture; format: cell-based, Staphylococcus aureus; settings: MHB, 2–5 × 10^5 CFU/mL, 16–18 h, 37 °C, OD600
Method: as §1

[1] = system: mouse red blood cells (RBCs); experiment: Hemolysis assay; format: cell-based; settings: mouse RBC, up to 250 μg/mL, 1 h, 37 °C, PBS pH 7.4; 0.1% Triton X-100 = 100%; data not shown
Method: For the experiment, a previously defined procedure was used with slight modifications[67],[68]. Briefly, blood was withdrawn from mice on the day of the experiment. After washing red blood cells (RBC) twice with phosphate buffer saline (PBS: 35 mM sodium phosphate, 150 mM NaCl, pH 7.4), a 4% v/v suspension of RBC was prepared in the same buffer. In a 96-well plate, serial two-fold dilutions of desired concentrations of peptidomimetics (in PBS) were prepared (100 μL) in duplicate. To each well 100 μL of 4% v/v RBC suspension was added. The plates were incubated at 37 °C for 1 h. After 1 h, the plates were centrifuged at 1500 rpm for 10 min and 20 μL of the supernatant was transferred to a fresh 96-well plate containing 80 μL PBS. The hemoglobin release was quantified by measuring OD414 in an ELISA plate reader (Molecular Devices, Sunnyvale, CA, USA). Hemoglobin release from 0.1% Triton X-100 treated RBC was set as 100% lysis (Amax) while as negative control RBC suspended in PBS alone was used (APBS). Percentage hemolysis was calculated using the following equation:1 %hemolysis=[(Asample−APBS)/(Amax−APBS)]×100

S. aureus (ISP479R) = format: cell-based, Staphylococcus aureus; settings: MHB, 2–5 × 10^5 CFU/mL, 16–18 h, 37 °C, OD600
Method: as §1

MRSA (ATCC 43300) = experiment: microbe, parasite or virus in culture; format: cell-based, Staphylococcus aureus; settings: MHB, 2–5 × 10^5 CFU/mL, 16–18 h, 37 °C, OD600
Method: as §1

[2] = system: E. faecium (E-447), clinical isolate of vancomycin-resistant E. faecium; experiment: organism not typed; format: cell-based, Enterococcus faecium; settings: VRE clinical isolate E-447; MHB, 2–5 × 10^5 CFU/mL, 16–18 h, 37 °C
Method: as §1

[3] = system: E. faecium (E-7846), clinical isolate of vancomycin-resistant E. faecium; experiment: organism not typed; format: cell-based, Enterococcus faecium; settings: VRE clinical isolate E-7846; MHB, 2–5 × 10^5 CFU/mL, 16–18 h, 37 °C
Method: as §1

[4] = system: 3T3 murine fibroblast cell line; experiment: Cytotoxicity, MTT assay; format: cell-based; settings: 3T3 fibroblasts, 2 h, DMEM with 10% FBS, mean ± S.D., triplicate on two days
Method: For the active peptidomimetics cytotoxicity was measured against 3T3 murine fibroblast cell line using a previously defined MTT assay with slight modifications. Briefly, the cells were grown to over 75% confluence in DMEM supplemented with 10% FBS and antibiotics (1 × Anti-anti) at 37 °C in 5% CO2 atmosphere. The cells were transferred to a 24-well plate to a final count of ~8 × 10^4 cells/well. […] The plates were kept for 2 h at 37 °C in 5% CO2 incubator. After 2 h, the cells were washed once with 1 mL PBS. Then 1 mL MTT (0.1 mg/mL) was added to each well in dark and incubated for 2 h at 37 °C in 5% CO2. After 2 h, 200 μL of DMSO was added to the wells to dissolve the formazan crystals formed and the plates were kept for 5 min in the incubator at 37 °C. 100 μL of the suspension was transferred to a fresh 96-well plate and absorbance (Asample) was measured at 570 nm in an ELISA plate reader (Molecular Devices, Sunnyvale, CA, USA). The wells with DMSO treatment were set as untreated control (Auntreated control). The assay was done in triplicate on two different days. The % survival was calculated using the following equation:2 %survival=[Asample/Auntreatedcontrol]×100

MRSA ATCC 33591 [5] = experiment: microbe, parasite or virus in culture; format: cell-based, Staphylococcus aureus
Method: An initial inoculum of mid-log phase 10^7 CFU/mL was used and MIC experiment was performed as described earlier. For serum/plasma stability assay a method as described previously was used with slight modifications. Briefly, 50 μL MHB medium containing desired concentration of test peptidomimetics was incubated with 50 µL mice plasma/fetal bovine serum for 3 h at 37 °C. After incubation, a 10 μL aliquot was taken out for MIC determination as described above. For the experiment, mid-log phase 2–5 × 10^5 CFU/mL were used as initial inoculum. For the growth control wells, an equivalent amount of plasma/FBS in the medium was also added to evaluate their effect on the viability of cells. A slight decrease in OD600 of cells incubated with mice plasma was observed compared to untreated growth control in MHB alone. The experiments were repeated on two different days and reproducible MIC values were observed.

[6] = system: Methicillin-resistant S. epidermidis (ATCC 35984); experiment: microbe, parasite or virus in culture; format: cell-based, Staphylococcus epidermidis; settings: MRSE ATCC 35984; MHB, 2–5 × 10^5 CFU/mL, 16–18 h, 37 °C, OD600
Method: as §1

[7] = system: Escherichia coli (ATCC 11775); format: cell-based
Method: as §1

MRSA ATCC 33591 [8] = experiment: Cell viability corresponding to calcein leakage experiment; format: cell-based, Staphylococcus aureus; settings: calcein-loaded cells in PBS, 4 × MIC (melittin 10 μM), 2 h incubation
Method: To assess the effect of designed peptidomimetics on membrane integrity of MRSA ATCC 33591 strain a calcein-AM dye release experiment was performed using the protocol described previously with slight modifications[51]. Briefly, exponential phase MRSA ATCC 33591 culture was prepared in MHB medium as mentioned earlier and adjusted to OD600 = 1 (~10^9 CFU/mL) in PBS (10 mM sodium phosphate, 150 mM NaCl, pH 7.4). Thereafter, the cells were incubated at 37 °C with calcein-AM (2 μg/mL) in 10% MHB medium for 2 h. The calcein-loaded cells were washed once and re-suspended in PBS to OD600 = 0.5 (~10^8 CFU/mL). The cells were diluted 100× in PBS to get 3–5 × 10^5 CFU/mL and were incubated with different concentrations of test agents at 37 °C in dark for 2 h. Subsequently, calcein fluorescence was measured via flow cytometry (Becton Dickinson (BD) FACS verse, San Jose, CA) with excitation and emission wavelengths of 488 nm and 530 ± 30 nm, respectively. For each sample, 10,000 cells were acquired. As a positive control, melittin (10 μM) was assayed under identical conditions. The experiment was repeated on two different days and mean ± S.D. is presented here. […]
agar plates. The plates were incubated at 37 °C for 16-18 h and colonies were counted. […]

MRSA ATCC 33591 [9] = experiment: Membrane depolarization assay, DiSC3(5); format: cell-based, Staphylococcus aureus; settings: 2 min, DiSC3(5), HEPES-glucose buffer pH 7.2, 37 °C, mean ± S.D., two days
Method: The cytoplasmic membrane depolarization in MRSA ATCC 33591 strain was measured using membrane potential sensitive dye 3,3′-dipropylthiacarbocyanine iodide (DiSC3(5)) with a protocol described previously with slight modifications[23],[48]. Briefly, exponential phase cells grown in MHB were harvested by centrifugation, washed and re-suspended in respiration buffer (5 mM HEPES, 20 mM glucose, pH 7.2) to 2.5 × 10^6 CFU/mL. The cells were divided into 1 mL aliquots and incubated with 3.6 μM of DiSC3(5) (in dark) for 30 min to get steady baseline fluorescence intensity. The dye-loaded cells (800 μL) were then treated with peptidomimetics at respective 1× and 4× MIC concentrations (2–20 μL) and consequent fluorescence increase after 2 min of addition was measured in a Shimadzu RF-5301 PC spectrofluorimeter. As controls IL, melittin and VAN were also assayed under identical conditions. The samples were excited at 622 nm and emission was recorded between 650–700 nm with 3 nm slit width for both excitation and emission. The temperature was maintained at 37 °C throughout the experiment. Depolarization kinetics was measured at 4 × MIC of test agents for 5 min. The experiment was repeated on two different days and for Fig. 3 panel (A) mean ± S.D. data for % depolarization relative to melittin control (10 μM) set as 100% is presented here. For panel (B) representative data is shown here. The viability of dye-loaded cells corresponding to depolarization experiment at 4 × MIC concentration was also measured by plating the diluted aliquots onto BHI agar plates.

MRSA ATCC 33591 [10] = experiment: Membrane permeabilization assay, calcein-AM dye release, flow cytometry; format: cell-based, Staphylococcus aureus; settings: PBS, 37 °C, mean ± S.D., two days
Method: To assess the effect of designed peptidomimetics on membrane integrity of MRSA ATCC 33591 strain a calcein-AM dye release experiment was performed using the protocol described previously with slight modifications. Briefly, exponential phase MRSA ATCC 33591 culture was prepared in MHB medium as mentioned earlier and adjusted to OD600 = 1 (~10^9 CFU/mL) in PBS (10 mM sodium phosphate, 150 mM NaCl, pH 7.4). Thereafter, the cells were incubated at 37 °C with calcein-AM (2 μg/mL) in 10% MHB medium for 2 h. The calcein-loaded cells were washed once and re-suspended in PBS to OD600 = 0.5 (~10^8 CFU/mL). […] Subsequently, calcein fluorescence was measured via flow cytometry (Becton Dickinson (BD) FACS verse, San Jose, CA) with excitation and emission wavelengths of 488 nm and 530 ± 30 nm, respectively. For each sample, 10,000 cells were acquired. As a positive control, melittin (10 μM) was assayed under identical conditions. The experiment was repeated on two different days and mean ± S.D. is presented here. Corresponding to leakage a viability assay at 4 × MIC of respective test agents was also performed by incubating samples for 2 h at 37 °C and plating the diluted aliquots on BHI agar plates.

Molecule: N=C(N)NCCC[C@H](NC(=O)C(Cc1c(F)c(F)c(F)c(F)c1F)NC(=O)[C@H](CCCNC(=N)N)NC(=O)[C@@H](N)Cc1c[nH]c2ccccc12)C(=O)N[C@@H](Cc1c[nH]c2ccccc12)C(N)=O (stereo partly drawn) [S-4, Trp-Arg-(F5-Phe propionic acid)-Arg-Trp-CONH2] (HELM PEPTIDE1{W.R.[O=C(C(Cc1c(F)c(F)c(F)c(F)c1F)N[*:1])[*:2]].R.W.[am]}$$$$V2.0)
- Minimum inhibitory concentration, MIC (S. aureus (ATCC 25923)): 45.4 µg/mL (≈ 48.4 µM)
- Minimum inhibitory concentration, MIC (S. aureus (ATCC 29213)): 45.4 µg/mL (≈ 48.4 µM)
- Minimum inhibitory concentration, MIC (S. aureus (ISP479C)): 45.4 µg/mL (≈ 48.4 µM)
- Minimum inhibitory concentration, MIC (MRSA (ATCC 33591)): 45.4 µg/mL (≈ 48.4 µM)
- % hemolysis [1]: < 5%
- Minimum inhibitory concentration, MIC (S. aureus (ISP479R)): 45.4 µg/mL (≈ 48.4 µM)

Molecule: N=C(N)NCCC[C@H](NC(=O)[C@H](Cc1c[nH]c2ccccc12)NC(=O)CCCCCCCCCCCNC(=O)[C@H](Cc1c[nH]c2ccccc12)NC(=O)[C@@H](N)CCCNC(=N)N)C(N)=O [S-7, Arg-Trp-(12-ADO)-Trp-Arg-CONH2] (HELM PEPTIDE1{R.W.[O=C(CCCCCCCCCCCN[*:1])[*:2]].W.R.[am]}$$$$V2.0)
- Minimum inhibitory concentration, MIC (S. aureus (ATCC 29213)): 11.3 µg/mL (≈ 12.6 µM)
- Minimum inhibitory concentration, MIC (S. aureus (ISP479C)): 11.3 µg/mL (≈ 12.6 µM)
- Minimum inhibitory concentration, MIC (MRSA (ATCC 43300)): 11.3 µg/mL (≈ 12.6 µM)
- Minimum inhibitory concentration, MIC (MRSA (ATCC 33591)): 11.3 µg/mL (≈ 12.6 µM)
- Minimum inhibitory concentration, MIC [2]: 11.3 µg/mL (≈ 12.6 µM)
- Minimum inhibitory concentration, MIC [3]: 5.6 µg/mL (≈ 6.23 µM)
- % viable cells relative to untreated control (MTT) ([4]; 10× MIC): no decrease in cell viability
- % viable cells relative to untreated control (MTT) ([4]; 20 × MIC): no decrease in cell viability
- Minimum inhibitory concentration, MIC (MRSA ATCC 33591 [5]; ATCC 33591, 3 h): 22.7 µg/mL (≈ 25.2 µM)
- Minimum inhibitory concentration, MIC (MRSA ATCC 33591 [5]; MRSA ATCC 33591, after 3 h pre-incubation at 37 °C with mice plasma (50%, v/v), inoculum 2–5 × 10^5 CFU/mL, repeated on two days): >45.4 µg/mL
- Minimum inhibitory concentration, MIC (MRSA ATCC 33591 [5]; MRSA ATCC 33591, initial inoculum 10^7 CFU/mL, mid-log phase): 11.3 µg/mL (≈ 12.6 µM)
- Minimum inhibitory concentration, MIC [6]: 11.3 µg/mL (≈ 12.6 µM)
- MIC [7]: > 45.4 µg/mL
- Minimum inhibitory concentration, MIC (S. aureus (ISP479R)): 11.3 µg/mL (≈ 12.6 µM)

Molecule: indolicidin (ILPWKWPWWPWRR; ends and bridges not checked; UniProt P33046 131-143, looked up) [naturally occurring Trp-Arg rich CAMP used as control]
- log reduction in viability (MRSA ATCC 33591 [8]): 1.8 log
- Minimum inhibitory concentration, MIC (MRSA (ATCC 33591)): 3.2 µg/mL
- % depolarization relative to melittin control (10 μM, set as 100%) (MRSA ATCC 33591 [9]; at 4 × MIC): 87.4 ± 5.5%
- % depolarization relative to melittin control (10 μM, set as 100%) (MRSA ATCC 33591 [9]; at MIC): 48.3 ± 6.3%
- % calcein leakage (MRSA ATCC 33591 [10]; at 4 × MIC, 2 min incubation): 42.2 ± 27.9%
- % calcein leakage (MRSA ATCC 33591 [10]; at 4 × MIC, 2 h incubation): 50.6 ± 23.6%
- % calcein leakage (MRSA ATCC 33591 [10]; at MIC, 2 min incubation): 6.2 ± 8.8%
- % calcein leakage (MRSA ATCC 33591 [10]; at MIC, 2 h incubation): 2.7 ± 3.9%
